Experimental data from paper PMC8617031, “Development of a BCL-xL and BCL-2 dual degrader with improved anti-leukemic activity,” (Nature Communications, 2021).
Where “and” joins values, the source holds several entries; their conditions need not be identical. Equal values may be shown once.

Experiments:
[1] = target: T1, BCL-xL/PROTAC/VHL-ELOC-ELOB (VCB) ternary complex (Homo sapiens, UniProt P40337+Q07817); assay: AlphaLISA ternary complex formation, cell-free, BCL-xL; type: binding
T1 construct: pGEX-6P-1-VHL(54-213) (pDL2200) was constructed through Gibson assembly method; made in house; host or cells: bacterial culture (LB broth, IPTG induction)
T1 sequence (Q07817 1-212 limits assumed): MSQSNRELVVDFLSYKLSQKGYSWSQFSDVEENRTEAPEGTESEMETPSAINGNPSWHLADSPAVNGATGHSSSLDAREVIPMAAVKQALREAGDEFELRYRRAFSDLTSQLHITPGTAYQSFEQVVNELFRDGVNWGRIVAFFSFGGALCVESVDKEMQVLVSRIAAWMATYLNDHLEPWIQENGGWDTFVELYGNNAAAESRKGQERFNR
T1 sequence (P40337 54-213 limits assumed): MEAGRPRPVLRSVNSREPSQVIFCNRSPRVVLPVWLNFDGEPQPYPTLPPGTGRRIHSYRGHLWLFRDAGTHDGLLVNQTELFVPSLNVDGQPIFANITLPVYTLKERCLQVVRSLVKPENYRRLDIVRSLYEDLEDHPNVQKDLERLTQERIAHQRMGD
T1 sequence (Q15369 17-112 partner limits assumed): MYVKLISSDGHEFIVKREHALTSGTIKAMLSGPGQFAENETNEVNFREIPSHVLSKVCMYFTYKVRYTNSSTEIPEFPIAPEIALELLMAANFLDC
T1 sequence (Q15370 whole entry partner): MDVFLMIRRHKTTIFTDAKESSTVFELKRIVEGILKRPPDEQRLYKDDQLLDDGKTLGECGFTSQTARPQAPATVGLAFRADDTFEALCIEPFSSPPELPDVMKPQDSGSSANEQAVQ
Experimental: (§1) AlphaLISA assay was used to evaluate the in vitro ternary complex formation between target proteins (BCL-xL or BCL-2), PROTAC and E3 ligase (VCB complex). In each well, 5 nM His-tagged BCL-xL or BCL-2 proteins and 5 nM GST-VCB complex was incubated with varying concentrations of compounds in fourfold serial dilutions, to a final volume of 40 µl in a 96-well PCR plate. After incubation at room temperature for 30 min, 5 µl alpha glutathione-donor beads (Cat. No. 6765300, PerkinElmer) were added to each well (20 µg/ml final concentration) and incubated for another 15 min. Thereafter, 5 µL 6× His-acceptor beads were added to each well (20 µg/ml final concentration) and incubated for an additional 45 min at room temperature. Thereafter, 17 µl of each sample was transferred in adjacent wells of a 384-well proxy plate, and the plate was scanned using the Alpha program on Biotek’s Synergy Neo2 multimode plate reader. The data were expressed as average AlphaLISA signal and plotted against different concentrations of compounds using GraphPad Prism 9 software.

BCL-xL = target: T2, BCL-xL (Homo sapiens, UniProt Q07817); assay: BCL-xL degradation by immunoblot in 293T cells; type: cell-based
T2 construct: endogenous in cells
T2 sequence (Q07817 whole entry): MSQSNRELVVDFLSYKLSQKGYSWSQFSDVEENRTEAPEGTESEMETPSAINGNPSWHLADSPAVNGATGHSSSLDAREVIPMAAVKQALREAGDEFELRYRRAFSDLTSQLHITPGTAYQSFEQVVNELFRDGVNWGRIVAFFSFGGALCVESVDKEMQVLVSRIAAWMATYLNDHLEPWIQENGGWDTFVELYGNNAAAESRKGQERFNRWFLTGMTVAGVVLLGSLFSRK
How it was run: (§2)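 Immunoblot of 293T cell lysates (RIPA, 20–40 μg protein per lane) with β-actin as loading control and chemiluminescent detection. Bands quantified by densitometry and normalized; DC50 and Dmax derived from the quantified blots, n = 3 biologically independent experiments.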

[2] = target: T3, BCL-2/PROTAC/VCB ternary complex (Homo sapiens, UniProt P10415+P40337); assay: AlphaLISA ternary complex formation, cell-free, BCL-2; type: binding; details: for Alpha (Alpha Endpoint read, Bcl-2 ternary complex formation): raw plate signal, duplicate wells; for AlphaLISA signal, BCL-2/PROTAC/VCB: Fig. 2d raw Alpha reads
T3 construct: pGEX-6P-1-VHL(54-213) (pDL2200) was constructed through Gibson assembly method; made in house; host or cells: bacterial culture (LB broth, IPTG induction)
T3 sequence (P10415 1-211 limits assumed): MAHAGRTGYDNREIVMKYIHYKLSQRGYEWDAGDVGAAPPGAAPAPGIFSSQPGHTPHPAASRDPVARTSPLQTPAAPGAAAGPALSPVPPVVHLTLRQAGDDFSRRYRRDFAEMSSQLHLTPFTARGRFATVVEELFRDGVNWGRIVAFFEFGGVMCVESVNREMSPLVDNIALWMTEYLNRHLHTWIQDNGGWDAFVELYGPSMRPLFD
T3 sequence (P40337 54-213 limits assumed): as the sequence (P40337 54-213 limits assumed) above
T3 sequence (Q15369 17-112 partner limits assumed): as the sequence (Q15369 17-112 partner limits assumed) above
T3 sequence (Q15370 whole entry partner): as the sequence (Q15370 whole entry partner) above
Experimental: as §1

BCL-2 = target: T4, BCL-2 (Homo sapiens, UniProt P10415); assay: BCL-2 degradation by immunoblot in 293T cells; type: cell-based
T4 construct: endogenous in cells
T4 sequence (P10415 whole entry): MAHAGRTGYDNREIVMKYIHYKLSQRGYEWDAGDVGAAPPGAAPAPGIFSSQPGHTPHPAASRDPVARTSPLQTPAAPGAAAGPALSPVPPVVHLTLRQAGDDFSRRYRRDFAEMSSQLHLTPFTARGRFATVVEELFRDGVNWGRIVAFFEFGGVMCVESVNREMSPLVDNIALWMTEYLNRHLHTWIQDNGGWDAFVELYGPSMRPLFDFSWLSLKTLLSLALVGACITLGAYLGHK
How it was run: as §2

- AlphaLISA signal, BCL-xL/PROTAC/VCB ([1]; compound 0.19 nM, Fig. 3e raw Alpha reads): 24660 and 20115
- AlphaLISA signal, BCL-xL/PROTAC/VCB ([1]; compound 0.191 nM, Fig. 2c raw Alpha reads): 16719 and 10405
- AlphaLISA signal, BCL-xL/PROTAC/VCB ([1]; compound 0.76 nM, Fig. 3e raw Alpha reads): 36507 and 38317
- AlphaLISA signal, BCL-xL/PROTAC/VCB ([1]; compound 0.763 nM, Fig. 2c raw Alpha reads): 18311 and 16968
- AlphaLISA signal, BCL-xL/PROTAC/VCB ([1]; compound 3.05 nM, Fig. 3e raw Alpha reads): 66449 and 60221
- AlphaLISA signal, BCL-xL/PROTAC/VCB ([1]; compound 3.052 nM, Fig. 2c raw Alpha reads): 25910 and 22328
- AlphaLISA signal, BCL-xL/PROTAC/VCB ([1]; compound 12.207 nM, Fig. 2c raw Alpha reads): 86818 and 83277
- AlphaLISA signal, BCL-xL/PROTAC/VCB ([1]; compound 12.21 nM, Fig. 3e raw Alpha reads): 409606 and 406374
- AlphaLISA signal, BCL-xL/PROTAC/VCB ([1]; compound 48.828 nM, Fig. 2c raw Alpha reads): 487236 and 509576
- AlphaLISA signal, BCL-xL/PROTAC/VCB ([1]; compound 48.83 nM, Fig. 3e raw Alpha reads): 1004765 and 1011127
- AlphaLISA signal, BCL-xL/PROTAC/VCB ([1]; compound 195.31 nM, Fig. 2c raw Alpha reads): 1016591 and 916263
- AlphaLISA signal, BCL-xL/PROTAC/VCB ([1]; compound 195.31 nM, Fig. 3e raw Alpha reads): 1443448 and 1418663
- AlphaLISA signal, BCL-xL/PROTAC/VCB ([1]; compound 781.25 nM, Fig. 2c raw Alpha reads): 880317 and 910855
- AlphaLISA signal, BCL-xL/PROTAC/VCB ([1]; compound 781.25 nM, Fig. 3e raw Alpha reads): 1065855 and 975587
- AlphaLISA signal, BCL-xL/PROTAC/VCB ([1]; compound 3125 nM, Fig. 2c raw Alpha reads): 660864 and 590073
- AlphaLISA signal, BCL-xL/PROTAC/VCB ([1]; compound 3125 nM, Fig. 3e raw Alpha reads): 557160 and 572089
- AlphaLISA signal, BCL-xL/PROTAC/VCB ([1]; compound 12500 nM, Fig. 2c raw Alpha reads): 241490 and 226854
- AlphaLISA signal, BCL-xL/PROTAC/VCB ([1]; compound 12500 nM, Fig. 3e raw Alpha reads): 200468 and 154034
- AlphaLISA signal, BCL-xL/PROTAC/VCB ([1]; compound 50000 nM, Fig. 2c raw Alpha reads): 34465 and 29535
- AlphaLISA signal, BCL-xL/PROTAC/VCB ([1]; compound 50000 nM, Fig. 3e raw Alpha reads, 2 technical replicates): 37331 and 41699
- AlphaLISA signal, BCL-xL/PROTAC/VCB ([1]; compound 200000 nM, Fig. 2c raw Alpha reads, 2 technical replicates): 19406 and 20996
- DC50 (BCL-xL; 293T cells, four concentrations, 16 h, Fig. 2b, read-out: BCL-xL DC50): 20.3 nM
- Dmax (BCL-xL; HEK-293T): 92%
- Alpha (Alpha Endpoint read, Bcl-2 ternary complex formation) ([2]; Conc. 0.0762939 nM): 20813 and 18426
- Alpha (Alpha Endpoint read, Bcl-2 ternary complex formation) ([2]; Conc. 0.305176 nM): 25167 and 44180
- Alpha (Alpha Endpoint read, Bcl-2 ternary complex formation) ([2]; Conc. 1.2207 nM): 134706 and 124477
- Alpha (Alpha Endpoint read, Bcl-2 ternary complex formation) ([2]; Conc. 4.88281 nM): 167974 and 147424
- Alpha (Alpha Endpoint read, Bcl-2 ternary complex formation) ([2]; Conc. 19.5312 nM): 637139 and 671757
- Alpha (Alpha Endpoint read, Bcl-2 ternary complex formation) ([2]; Conc. 78.125 nM): 1569627 and 1815622
- Alpha (Alpha Endpoint read, Bcl-2 ternary complex formation) ([2]; Conc. 312.5 nM): 1851330 and 1734079
- Alpha (Alpha Endpoint read, Bcl-2 ternary complex formation) ([2]; Conc. 1250 nM): 970107 and 1023464
- Alpha (Alpha Endpoint read, Bcl-2 ternary complex formation) ([2]; Conc. 5000 nM): 185911 and 171854
- Alpha (Alpha Endpoint read, Bcl-2 ternary complex formation) ([2]; Conc. 20000 nM): 15128 and 13041
- AlphaLISA signal, BCL-2/PROTAC/VCB ([2]; compound 0.191 nM): 15777 and 15419
- AlphaLISA signal, BCL-2/PROTAC/VCB ([2]; compound 0.763 nM): 15170 and 18328
- AlphaLISA signal, BCL-2/PROTAC/VCB ([2]; compound 3.052 nM): 22062 and 18311
- AlphaLISA signal, BCL-2/PROTAC/VCB ([2]; compound 12.207 nM): 69812 and 70261
- AlphaLISA signal, BCL-2/PROTAC/VCB ([2]; compound 48.828 nM): 478226 and 503248
- AlphaLISA signal, BCL-2/PROTAC/VCB ([2]; compound 195.31 nM): 862665 and 765838
- AlphaLISA signal, BCL-2/PROTAC/VCB ([2]; compound 781.25 nM): 770133 and 699715
- AlphaLISA signal, BCL-2/PROTAC/VCB ([2]; compound 3125 nM): 392514 and 467832
- AlphaLISA signal, BCL-2/PROTAC/VCB ([2]; compound 12500 nM): 47038 and 50161
- AlphaLISA signal, BCL-2/PROTAC/VCB ([2]; compound 50000 nM): 7988 and 8322
- AlphaLISA signal, BCL-2/PROTAC/VCB ([2]; compound 200000 nM, 2 technical replicates): 7003 and 7472
- BCL-2 degradation (in words) (BCL-2; 293T cells, 16 h): did not induce BCL-2 degradation
- Dmax (BCL-2; HEK-293T): 0%
Structure (SMILES): Cc1ncsc1-c1ccc([C@H](C)NC(=O)[C@@H]2C[C@@H](O)CN2C(=O)[C@@H](NC(=O)CCCCCC(=O)N2CCN(CC[C@H](CSc3ccccc3)Nc3ccc(S(=O)(=O)NC(=O)c4ccc(N5CCN(CC6=C(c7ccc(Cl)cc7)CCC(C)(C)C6)CC5)cc4)cc3S(=O)(=O)C(F)(F)F)CC2)C(C)(C)C)cc1 [DT2216]
